The source of these data is US20230073834A1, “SUBNORMOTHERMIC MACHINE PERFUSION OF ORGANS WITH CARBON MONOXIDE AND OXYGEN” (priority 2021, published 2023).

One test deals with Toll-like receptor 4. Briefly: Toll-like receptor suppression in CORM-401 perfused porcine DCD kidneys. The arrangement: species or system large male Landrace pig. Conditions: 200 μM CORM-401 perfused kidneys. On the procedure: (§1) Methods: To stimulate donation after circulatory death condition, kidneys from large male Landrace pig were retrieved after 1-hour warm ischemia in situ by cross-clamping the renal pedicle. […] Kidneys were then reperfused with normothermic isogeneic porcine blood through oxygenated pulsatile perfusion for 10 hours. Urine was collected, vascular flow was assessed during reperfusion and histopathology was assessed after 10 hours of reperfusion. Sections were stained with H&E (not shown), TUNEL (FIG. 4A) and MSB (FIG. 4B) to quantify ATN (FIG. 4C), Apoptosis (brown spot), Hemorrhage (yellow stain), and neutrophil gelatinase-associated lipocalin (NGAL) to quantify kidney injury (FIG. 4D).

In another test the test system is Toll-like receptor 6. The test is described as above. The arrangement: species or system large male Landrace pig. Conditions: 200 μM CORM-401 perfused kidneys. On the procedure:
as §1

The subject of a further test is Toll-like receptor 2. Described as above. Set-up: species or system large male Landrace pig. Conditions: 200 μM CORM-401 perfused kidneys. The protocol: as §1
Another test relates to porcine DCD kidneys. Briefly: Ex vivo pulsatile perfusion of porcine DCD kidneys with CORM-401 in UW solution, then blood reperfusion. The arrangement: species or system large male Landrace pig. The protocol: as §1
A further test concerns Pig kidneys. Briefly: Ex vivo subnormothermic (22° C.) pulsatile perfusion of pig kidneys with HBOC-201 versus blood or static cold storage. On the procedure: Methods: Pig kidneys (n=5) were procured after 30 minutes of warm in situ ischemia by cross-clamping the renal arteries. Organs were flushed with histidine tryptophan ketoglutarate solution and subjected to static cold storage or pulsatile perfusion with an RM3 pump at 22° C. for 4 hours with HBOC-201 and blood. Thereafter, kidneys were reperfused with normothermic (37° C.) oxygenated blood for 4 hours. Blood and urine were subjected to biochemical analysis. Total urine output, urinary protein, albumin/creatinine ratio, flow rate, resistance were measured. Acute tubular necrosis, apoptosis, urinary kidney damage markers, neutrophil gelatinase-associated lipocalin 1, and interleukin 6 were also assessed.

[1] abbreviates: 200 μM, 4 h perfusion at 4° C. in UW solution, 10 h blood reperfusion, vs inactive CORM-401.
[2] abbreviates: 22° C. 4 hours perfusion, 4 hours reperfusion, as with blood.
[3] abbreviates: 22° C. 4 hours perfusion, 4 hours reperfusion, versus cold storage.

Turning to `CN(CC(=O)O)C(=S)[S-].[C-]#[O+].[C-]#[O+].[C-]#[O+].[C-]#[O+].[Mn]` [CORM-401], the “Toll-like receptor 4 suppression (anti-inflammatory action)” value in the test on Toll-like receptor 4 was “suppressing”. In the test on Toll-like receptor 6, the “Toll-like receptor 6 suppression (anti-inflammatory action)” value is recorded as “suppressing”. In addition, the “Toll-like receptor 2 suppression (anti-inflammatory action)” value in the test on Toll-like receptor 2 is listed as “suppressing”. Moreover, in the test with porcine DCD kidneys (200 μM, 4 h perfusion at 4° C. in UW solution, 10 h blood reperfusion), the “intrarenal hemorrhage and vascular dotting during reperfusion” value is on record as “prevented”. Moreover, in the test on porcine DCD kidneys (setting [1]), the “ATN (acute tubular necrosis) in histopathologic sections” value is “reduced”; the “dUTP nick end labeling staining in histopathologic sections” value was “reduced”; the “kidney damage markers (kidney damage marker-1 and neutrophil gelatinase-associated lipocalin)” value is “attenuated”. For the same molecule, the urinary protein excretion entry in the test on porcine DCD kidneys (200 μM, 4 h perfusion at 4° C. in University of Wisconsin solution, 10 h normothermic blood reperfusion, vs inactive CORM-401) is “reduced”. Besides, in the test with porcine DCD kidneys (1 h warm ischemia, perfusion with UW solution, 10 h blood reperfusion at 37° C.), the “injury in porcine DCD kidneys” value is “reduced injury”.
As to “HBOC-201: acellular hemoglobin-based oxygen carrier; blood free oxygen carrier (Hemopure)”, the “renal blood flow and function upon reperfusion” value in the test with Pig kidneys (22° C. 4 hours perfusion, 4 hours reperfusion with 37° C. oxygenated blood, compared with blood-treated kidneys) was “similar”. Also, in the test with Pig kidneys (setting [2]), the IL6 levels entry is given as “similarly reduced” and the Urinary damage markers result is given as “similarly reduced”. Besides, in the test on Pig kidneys (setting [3]), the “TUNEL staining (apoptosis)” value is reported as “vastly reduced” and the “acute tubular necrosis scores” value is given as “vastly reduced”. Besides, the “TUNEL staining (apoptosis)” value in the test with Pig kidneys (22° C. 4 hours perfusion, 4 hours reperfusion, versus cold storage, listed as HBOC) is “reduces apoptosis”. Also, the tissues oxygen saturation result in the test with Pig kidneys (22° C., 4 hours perfusion, compared with blood) is reported as “equivalent to blood”.
